Results on 16 compounds are retold here after patent US5360794A, “Disubstituted and deoxy disubstituted derivatives of α-D-mannofuranosides and β-L-gulofuranosides having anti-inflammatory and anti-proliferative activity” (Medicarb Inc., priority 1992, dated 1994).

Assay [1] deals with T-lymphocytes (BALB/cBYJ responder spleen cells with mitomycin C treated C57BL/6J stimulator spleen cells). Nature of the assay: Mixed lymphocyte response (MLR). It is filed as cell-based, mouse. Particulars: estimated IC50, 5 days at 37° C., MTT, 1, 10, 30, 100, and 300 μM. From the text: i Mixed lymphocyte response (MLR).
The MLR assay measures the effects of a study compound on the activation and antigen presentation of T-lymphocytes, therefore determining immunomodulatory properties. The mouse spleen cell mitogen-induced blastogenesis and the BUD-8 human fibroblast proliferation assays measure the effects of the compounds of the present invention on cellular proliferation of cells involved in the pathogenesis of autoimmune diseases. These two assays are appropriate as screens to ascertain anti-inflammatory and/or autoimmune beneficial activity and are art accepted for such purposes.
The MLR is a classical assay used to measure T cell function by studying the proliferation response of T cells which are activated in vitro by genetically disparate stimulator cells. This is accomplished by co-culturing spleen cells from two different strains of mice. Splenic T cell proliferation occurs as a result of cellular activation signals generated by the ongoing cellular interactions.
In performing MLR assays, BALB/cBYJ mice were euthanized by cervical dislocation and their spleens removed. Single cell suspensions were prepared in culture medium (RPMI-1640 with hepes supplemented with 10% calf serum, 2 mM glutamine, 500 units penicillin/streptomycin, and 4×10^-5 M 2-mercaptoethanol) using a Teflon pestle. The cells were centrifuged at 1500 RPM and the pellets resuspended in ACT (0.15M Tris, 0.14M ammonium chloride, pH 7.2) in order to lyse the red blood cells. After a 5 minute incubation at 37° C. in a waterbath, the cells were washed and resuspended in culture medium. The splenic lymphocytes were counted. C57BL/6J spleen cells, which were used as stimulator cells, were prepared in the same way. The stimulator cells were treated with 50 μg/ml of mitomycin C for 20 minutes at 37° C., then washed five times in culture medium. The proliferative response were measured by culturing 5×10^5 responder spleen cells with […] in 96-well microtiter plates in the presence or absence of test article or vehicle (DMSO). Syngeneic control cultures using mitomycin C treated normal BALB/c spleen cells as the stimulator cells were also run. All cultures were run in triplicate.
Solutions of compounds of the present invention in DMSO were prepared at a stock concentration of 300 mM. Solutions were made in a culture medium to a concentration of 1, 10, 30, 100, and 300 μM. The vehicle DMSO was used as a negative control.
After incubation for 5 days at 37° C. with 5% carbon dioxide, the amount of cell proliferation was measured by adding 20 μl of MTT (10 mg/ml in PBS) (3-[4,5-dimethylthiazol-2-yl]-2,5-diphenyl-tetrazolium bromide) to each well. Plates were incubated for 4 hours at 37° C., after which 180 μl of supernatant was removed and 180 μl of 10% SDS in PBS was added. After an overnight incubation, the optical density (OD) of each well was read on a Molecular Devices microplate reader at 570-650 nm.
The results were determined by calculating the difference between the means of the allogeneic cultures and the means of the syngeneic cultures for each test compound concentration. Differences of the test article groups were compared to the difference of the control group. The percent change from the control was determined and an IC50 estimated. The criteria used to establish activity levels were:
Sixteen (16) novel compounds were assayed for their ability to modulate a Mixed Lymphocyte Response in vitro. The test compounds were added to MLR cultures to give final concentrations of 1, 10, 30, 100, and 300 μM. The responses observed in the test article treated wells were compared to the control wells. […] Based on the estimated IC50, all the test compounds were strong inhibitors of the MLR.

For assay [2], the system named is various tumor cell lines (leukemia, melanoma, lung cancer, colon cancer, renal cancer, ovarian cancer, brain cancer). As to the kind of experiment: Tumor cell line growth inhibition (average over lines of seven cancer types). Type of assay: cell-based. The following applies: Log 10 values; average GI50 over tumor cell lines from seven cancer types; read-out: GI (μM) Log 10 values (Average GI50) (converted). As to the method: The compounds of the present invention were also tested against various tumor cell lines, derived from seven cancer types. These include leukemia, melanoma, lung cancer, colon cancer, renal cancer, ovarian cancer, and brain cancer. Most of the compounds have shown significant activity in various screens, particularly against colon cancer and melanoma.

[3] abbreviates: Mus musculus, T-lymphocyte, 120 h.

For `CCCCCCCCCOCCCO[C@H]1O[C@H]([C@H](O)CN2CCCC2)[C@@H]2OC(C)(C)O[C@H]12` [Compound 3, n-Nonyloxypropyl 2,3-O-(1-methylethylidene)-6-deoxy-pyrrolidinyl-α-D-mannofuranoside], in assay [1] (setting [3]), the IC50 (in general, the midpoint of a concentration-inhibition curve) was less than 1 µM. Moreover, the GI50 (usually the concentration at which growth is held to half of that of the control) in assay [2] was 9.12 µM.

`CCCCCCCCCOCCCO[C@H]1O[C@H]([C@H](O)CN2CCCCC2)[C@@H]2OC(C)(C)O[C@H]12` [Compound 4, n-Nonyloxypropyl 2,3-O-(1-methylethylidene)-6-deoxy-6-piperidinyl-α-D-mannofuranoside]: the IC50 in assay [1] (setting [3]) was 27 µM.

Take `CCCCCCCCCOCCCO[C@H]1O[C@H]([C@H](O)CN2CCOCC2)[C@@H]2OC(C)(C)O[C@H]12` [Compound 5, n-Nonyloxypropyl 2,3-O-(1-methylethylidene)-6-deoxy-6-morpholinyl-α-D-mannofuranoside]: in assay [1] (setting [3]), the IC50 is 19 µM.

`CCCCCCCCCOCCCO[C@H]1O[C@H]([C@H](O)CN2CCCCCC2)[C@@H]2OC(C)(C)O[C@H]12` [Compound 6, n-Nonyloxypropyl 2,3-O-(1-methylethylidene)-6-deoxy-6-hexamethyleneimino-α-D-mannofuranoside]: the IC50 in assay [1] (setting [3]) is less than 0.5 µM.

For the compound `CCCCCCCCCOCCCO[C@H]1O[C@H]([C@H](O)CNCCCCCCC)[C@@H]2OC(C)(C)O[C@H]12` [Compound 8, n-Nonyloxypropyl 2,3-(1-methylethylidene)-6-deoxy-6-aminoheptyl-α-D-mannofuranoside], in assay [1] (setting [3]), the 50% inhibitory concentration (IC50) was less than 1 µM. Also, the GI50 in assay [2] is 2.29 µM.

For `CCCCCCCCCOCCCO[C@H]1O[C@H]([C@@H](C)OCCCN(C)C)[C@@H]2OC(C)(C)O[C@H]12` [Compound 10, n-Nonyloxypropyl 2,3-O-(1-methylethylidene)-6-deoxy-5-O-(N,N-dimethylaminopropyl)-α-D-mannofuranoside], in assay [1] (setting [3]), the IC50 is less than 1 µM. In addition, in assay [2], the concentration for 50% growth inhibition (GI50) was 11.5 µM.

On to `CCCCCCCCCOCCCO[C@H]1O[C@H]([C@@H](C)OCCN2CCCC2)[C@@H]2OC(C)(C)O[C@H]12` [Compound 12, n-Nonyloxypropyl 2,3-O-(1-methylethylidene)-6-deoxy-5-O-(N'-ethylpyrrolidinyl)-α-D-mannofuranoside], for which the IC50 in assay [1] (setting [3]) is less than 0.5 µM.

On to `CCCCCCCCCOCCCO[C@H]1O[C@H]([C@H](C)N2CCCC2)[C@@H]2OC(C)(C)O[C@H]12` [Compound 15, n-Nonyloxypropyl 5,6-dideoxy-2,3-O-(1-methylethylidene)-5-pyrrolidinyl-β-L-gulofuranoside], for which the concentration for half-maximal inhibition (IC50) in assay [1] (setting [3]) is 0.99 µM.

Turning to `CC1(C)O[C@@H]2[C@H](O1)[C@@H](OCCCc1ccccc1)O[C@@H]2[C@H](O)CN1CCCC1` [Compound 20, Phenylpropyl 6-deoxy 2,3-O-(1-methylethylidene)-6-pyrrolidinyl-α-D-mannofuranoside], the IC50 in assay [1] (setting [3]) is less than 1 µM. In addition, the GI50 in assay [2] was 87.1 µM.

For the compound `CCCCCCCNC[C@@H](O)[C@H]1O[C@H](OCCCc2ccccc2)[C@H]2OC(C)(C)O[C@H]21` [Compound 21, Phenylpropyl 6-deoxy 2,3-O-(1-methylethylidene)-6-heptylamino-α-D-mannofuranoside], the IC50 in assay [1] (setting [3]) was less than 1 µM. For the same compound, the 50% growth inhibitory concentration (GI50) in assay [2] was 7.41 µM.

For the compound `CC1(C)O[C@@H]2[C@H](O1)[C@@H](OCCCc1ccccc1)O[C@@H]2[C@H](O)CNCCCN1CCCC1` [Compound 22, Phenylpropyl 6-deoxy 2,3-O-(1-methylethylidene)-6-aminopropylpyrrolidinyl-α-D-mannofuranoside], in assay [1] (setting [3]), the IC50 was 0.85 µM.

As for `C[C@@H]([C@H]1O[C@H](OCCCc2ccccc2)[C@H]2OC(C)(C)O[C@H]21)N1CCCC1` [Compound 24, Phenylpropyl 5,6-dideoxy 2,3-O-(1-methylethylidene)-5-pyrrolidinyl-β-L-gulofuranoside], in assay [1] (setting [3]), the IC50 is less than 1 µM. Besides, in assay [2], the GI50 was 95.5 µM.

For `C[C@@H](OCCCN(C)C)[C@H]1O[C@H](OCCCc2ccccc2)[C@H]2OC(C)(C)O[C@H]21` [Compound 26, Phenylpropyl 6-deoxy 2,3-O-(1-methylethylidene)-5-O-3'-(N'N'-dimethylamino-n-propyl)-α-D-mannofuranoside], the IC50 in assay [1] (setting [3]) was less than 1 µM. For the same compound, the 50% growth inhibitory concentration (GI50) in assay [2] is 58.9 µM.

On to `C[C@@H](OCCN1CCCC1)[C@H]1O[C@H](OCCCc2ccccc2)[C@H]2OC(C)(C)O[C@H]21` [Compound 27, Phenylpropyl 6-deoxy 2,3-O-(1-methylethylidene)-5-O-(N'-ethylpyrrolidinyl)-α-D-mannofuranoside], for which the concentration for half-maximal inhibition (IC50) in assay [1] (setting [3]) is 5.8 µM.

Consider `CC1(C)O[C@@H]2[C@H](O1)[C@@H](OCCCCN1CCCC1)O[C@@H]2[C@H](O)CO` [Compound 29, 4'-(1-Pyrrolidinyl)butyl 2,3-O-(1-methylethylidene)-α-D-mannofuranoside], for which the IC50 in assay [1] (setting [3]) was 26 µM.

For the compound “n-Nonyloxypropyl 2,3-O-(1-methylethylidene)-6-deoxy-6-aminothylpyrrolidinyl-α-D-mannofuranoside [Compound 7]”, the concentration for half-maximal inhibition (IC50) in assay [1] was 0.75 µM.
